The record followed here is patent US11506670B2, “Method of genome-wide direct identification of electrophile-sensing targets” (Cornell University, priority 2018, dated 2022).

Assay [1] concerns the target T1, Ube2N (Homo sapiens, UniProt P61088).
T1 construct: expressed in transfected cells; host or cells: HEK 293T
Put plainly: Biotin azide/streptavidin pulldown of HNEylated proteins from mammalian lysate. To be noted: HEK293T, Halo-(FLAG)-Ube2V2 and HA-Ube2N. The class given is cell-based. The method, then: HEK 293T cells were seeded in 60 cm^2 plate. After the cells reached 60% confluence (˜18-24 h), the old media were replaced with fresh 8 mL complete media. Cells were transfected with 7.5 μg of the designated plasmids encoding the HaloTag fusion gene and 30 μL PEI (1 mg/mL) in 600 μL in Opti-MEM media for 24-36 h after which the cells were treated with 25 μM Ht-PreHNE or without alkyne (control) for 2.5 h. Rinsing and light shining protocol were as described above. Cells were harvested, washed twice with chilled 1× DPBS and flash frozen.
Mammalian cell lysis was performed in 200 μL of lysis buffer containing in final concentrations 50 mM HEPES (pH 7.6), 150 mM NaCl, 1% Nonidet P-40 and 1× Roche cOmplete, mini, EDTA-free protease inhibitor cocktail by rapid freeze-thaw (×3). Lysate was clarified by centrifugation at 18,000×g for 30 min at 4° C.
Total protein concentration from either mammalian cell lysate or zebrafish lysate was determined using Bradford assay with BSA as standard. The lysate was subsequently diluted to 2 mg/mL with a buffer made up of 50 mM HEPES (pH 7.6) and 0.3 mM TCEP, and subjected to Click reaction with biotin azide for 30 min at 37° C. The final concentrations of each components were: 1% SDS, 5% t-BuOH, 200 μM Biotin azide, 2 mM TCEP, 0.9 mM CuSO4 and 0.1 mM Cu(TBTA). The lysate proteins were precipitated by adding 4 volumes of EtOH pre-chilled at −20° C. […]

Assay [2] concerns the target Ube2V2 (Homo sapiens, UniProt Q15819). Briefly: T-REX in zebrafish embryos, biotin/streptavidin pulldown of HNEylated Ube2V2. The class given is in vivo. Particulars: human Halo-Ube2V2 mRNA-injected embryos. The method, then: Zebrafish cell lysis was performed with similar procedure as mammalian cells: 50 mM HEPES (pH 7.6), 150 mM NaCl, 1% Nonidet P-40, 0.2 mg/ml soybean protease inhibitor (Sigma), and 3× Roche cOmplete, mini, EDTA-free protease inhibitor cocktail by rapid freeze-thaw and votexing with zirconia beads (Bio spec 0.7 mm beads; 11079107zx).
Total protein concentration from either mammalian cell lysate or zebrafish lysate was determined using Bradford assay with BSA as standard. The lysate was subsequently diluted to 2 mg/mL with a buffer made up of 50 mM HEPES (pH 7.6) and 0.3 mM TCEP, and subjected to Click reaction with biotin azide for 30 min at 37° C. The final concentrations of each components were: 1% SDS, 5% t-BuOH, 200 μM Biotin azide, 2 mM TCEP, 0.9 mM CuSO4 and 0.1 mM Cu(TBTA). The lysate proteins were precipitated by adding 4 volumes of EtOH pre-chilled at −20° C. (EtOH final concentration is 80%). The sample was vortexed and incubated at −80° C. overnight (or at least 4 h) to facilitate precipitation. The precipitant was collected by centrifugation at 21,000×g for 120 min at 4° C. and washed twice with pre-chilled MeOH, once with pre-chilled acetone. […]
DDR preconditioning occurs in zebrafish embryos. […] Subsequently, the fish were fixed and γ-H2AX levels were measured using whole-mount immunofluorescence.

In assay [3] the test system is HaloTag. Put plainly: Reaction of purified recombinant HaloTag with HNE, in-gel fluorescence. Particulars: 0-16 equiv., 20-min incubation. The format is biochemical. The method, then: HEK293T cells expressing HaloTag alone treated under standard T-REX™ delivery conditions with Ht-PreHNE were exposed to UV light (0.3 mW/cm^2, 365 nm) for the indicated time periods at which point the cells were harvested, lysed, and subjected to Click coupling and in-gel fluorescence analysis followed by western blot. Error bars designate SD (N=3). […] Purified recombinant HaloTag was treated with either the photocaged precursor Ht-PreHNE (FIG. 17, inset, and FIG. 29) (2 equiv., lane a, positive control), or directly with reactive electrophile HNE (FIG. 29) (0, 2, 4, 8, 16 equiv., lane b, c, d, e, f, respectively). After 20-min incubation, the samples were analyzed by in-gel fluorescence. M, molecular weight ladder.

Sequence of Ube2V2 (Q15819 whole entry): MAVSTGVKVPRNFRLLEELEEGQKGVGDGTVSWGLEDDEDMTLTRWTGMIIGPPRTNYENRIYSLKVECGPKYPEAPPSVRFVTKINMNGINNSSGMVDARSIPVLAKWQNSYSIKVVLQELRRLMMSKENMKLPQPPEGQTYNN
T1 sequence (P61088 whole entry): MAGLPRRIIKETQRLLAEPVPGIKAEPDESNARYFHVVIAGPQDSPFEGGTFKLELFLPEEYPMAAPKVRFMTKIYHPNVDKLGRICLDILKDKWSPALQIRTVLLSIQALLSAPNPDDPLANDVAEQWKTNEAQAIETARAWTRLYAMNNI
T1 sequence (Q15819 whole entry partner): as the sequence (Q15819 whole entry) above

For `CCCCCC(O)/C=C/C=O` (stereo not drawn) [HNE, 4-hydroxynonenal], the “HNEylation of Ube2N during T-REX delivery to Ube2V2 (affinity capture)” value in assay [1] was “no detectable HNEylation of Ube2N”. Moreover, the “HNEylation of Ube2V2 in zebrafish” value in assay [2] is given as “significantly HNEylated”. Besides, in assay [3], the “reaction of HaloTag with HNE” value is recorded as “does not react”.
